Where only a bound is given, the exact number is not on record here.

One assay concerns Escherichia coli (ATCC25922) or Staphylococcus aureus (ATCC25923). Briefly: Antibacterial MIC, microdilution method in Mueller-Hinton medium. In kind it is cell-based. Conditions: Escherichia coli, 18 h, MIC in E. coli or S. aureus; two-fold serial dilutions 64 to 0.5 μg/ml in duplicate; 18 hours of incubation at 35° C.; read-out: Potency (MIC). A digest of the protocol: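 Read after 18 h incubation at 35° C, MIC is the lowest compound level that blocked growth. Compounds were tested in duplicate over 64–0.5 μg/ml two-fold dilutions using Mueller-Hinton microdilution per NCCLS standard.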
In general terms: In broth dilution the organism is exposed to a series of concentrations in liquid medium.
Usually MIC stands for the least concentration at which growth counts as inhibited. Take `COc1nc(Nc2ccc(C(=O)Oc3ccccc3)c(O)c2)nc(N2CCCCC2)n1.Cl` [4-[4-((3R,5S)-3,5-Diamino-piperidin-1-yl)-6-methoxy-[1,3,5]triazin-2-ylamino]-2-hydroxy-benzoic acidphenylester]: the MIC was < 16 µg/mL.

For the compound `O=S(=O)(Nc1ccc2cn[nH]c2c1)c1ccc(Nc2nc(N3CCCCC3)nc(N3CCN(c4ccncc4)CC3)n2)cc1` [4-[4-((3S,5R)-3,5-DSiamino-piperidin-1-yl)-6-(4-pyridin-4-yl-piperazin-1-yl)-[1,3,5]triazin-2-ylamino]-N-(1H-indazol-6-yl)-benzenesulfonamide], the MIC is < 64 µg/mL.

`N[C@@H]1C[C@H](N)CN(c2nc(Nc3ccc(S(=O)(=O)Nc4ccc5cn[nH]c5c4)cc3)nc(N3CCC(N4CCCC4)CC3)n2)C1` [4-[4-((3S,5R)-3,5-Diamino-piperidin-1-yl)-6-(4-pyrrolidin-1-yl-piperidin-1-yl)-[1,3,5]triazin-2-ylamino]-N-(1H-indazol-6-yl)-benzenesulfonamide]: the MIC is > 64 µg/mL.

In the case of `Cl.O=C(Oc1ccccc1)c1ccc(Nc2nc(N3CCCCC3)nc(N3CCCC3)n2)cc1O` [4-[4-((3S,5R)-3,5-Diamino-piperidin-1-yl)-6-((3R,4S)-3,4-dihydroxy-pyrrolidin-1-yl)-[1,3,5]triazin-2-ylamino]-2-hydrooxy-benzoic acidphenyl ester], the MIC was < 64 µg/mL.

On to `Cl.O=C(Oc1ccccc1)c1ccc(Nc2cc(N3CCCCC3)cc(N3CCCCC3)c2)cc1O` [4-[4-((3S,5R)-3,5-Diamino-piperidin-1-yl)-6-((R)-3-hydroxy-piperidin-1-yl)-[1,3,5]triazin-2-ylamino]-2-hydroxy-benzoicacidphhenylester], for which the minimal inhibitory concentration (MIC) was < 64 µg/mL.

Regarding `N[C@@H]1C[C@H](N)CN(c2nc(Nc3ccc(S(=O)(=O)Nc4ccc5cn[nH]c5c4)cc3)nc(NC3CCCNC3)n2)C1` (stereo partly drawn) [4-[4-((3S,5R)-3,5-Diamino-piperidin-1-yl)-6-(piperidin-3-ylamino)-[1,3,5]triazin-2-ylamino]-N-(1H-indazol-6-yl)-benzenesulfonamide], the MIC is > 64 µg/mL.

Take `O=S(=O)(Nc1ccc2cn[nH]c2c1)c1ccc(Nc2nc(N3CCCCC3)nc(N3CCNCC3)n2)cc1` [4-[4-((3S,5R)-3,5-Diamino-piperidin-1-yl)-6-piperazin-1-yl[1,3,5,-triazin-2-ylamino]-N-(1H-indazol-6-yl)-benzenesulfonamide]: the MIC was > 64 µg/mL.

As for `Cl.NCCN(CCN)c1nc(Nc2ccc(C(=O)Oc3ccccc3)c([N+](=O)[O-])c2)nc(N2CCCCC2)n1` [4-[4-[Bis-(2-amino-ethyl)-amino]-6-((3R,5S)-3,5-diamino-piperidin-1-yl)-[1,3,5]triazin-2-ylamino]-2-hydroxy-benzoic acidphenyl ester], the minimum inhibitory concentration (MIC) is < 64 µg/mL.

Turning to `Cl.N[C@@H]1C[C@H](N)CN(c2nc(N3C[C@H](N)C[C@H](N)C3)nc(N(c3ccccc3)c3ccc(O)cc3)n2)C1` [4-{[4,6-Bis-((3R,5S)-3,5-diamino-piperidin-1-yl)-[1,3,5]triazin-2-yl]-phenyl-amino}-phenyl], the minimal inhibitory concentration (MIC) is > 64 µg/mL.

`Cl.O=C(CCCCC1SCC2NC(=O)NC21)Nc1ccc(Nc2nc(N3CCCCC3)nc(N3CCCCC3)n2)cc1O` [5-((S)-2-Oxo-hexahydro-thieno[3,4-d]imidazol-2-yl)-penanoicacid {4-[4-((3S,5S)-3-amino-5-azido-piperidin-1-yl)-6-((3S,5R)-3,5-diamino-piperidin-1-yl)-[1,3,5]triazin-2-ylamino]-2-hydroxy-phenyl}-amide]: the minimum inhibitory concentration (MIC) was > 64 µg/mL.

Regarding `Cl.Nc1nc(Nc2ccc(Cl)c(Cl)c2)nc(C2C[C@@H](N)C[C@@H](N)C2)n1` (stereo partly drawn) [6-((3S,5R)-3,5-Diamino-piperidin-1-yl)-N-(3,4-dichlorro-phenyl)-[1,3,5]triazine-2,4-diamine], the MIC was > 64 µg/mL.

Take `Cc1cc(=O)oc2cc(Nc3nc(N4C[C@H](N)C[C@H](N)C4)nc(N4CC[C@H](O)[C@@H]4CN)n3)ccc12` [7-[4-((2S,3S)-2-Aminomethyl-3-hydroxy-pyrrolidin-1-yl)-6-((3R,5S)-3,5-diamino-piperidin-1-yl)-[1,3,5]triazin-2-ylamino]-4-methyl-chromen-2-one]: the minimum inhibitory concentration (MIC) is > 64 µg/mL.

Regarding `COc1nc(Nc2ccc3c(C)cc(=O)oc3c2)nc(N2CCCCC2)n1.Cl` [7-[4-((3R,5S)-3,5-DSiamino-piperidin-1-yl)-6-methoxy-[1,3,5]triazin-2-ylamino]-4-methyl-chromen-2-one], the MIC was > 64 µg/mL.

The assay is the same for the next values; noted with them: Escherichia coli, 18 h, read-out: Potency (MIC).
On to `NC[C@@H]1C[C@H](CN)CN(c2nc(Nc3ccc(C(=O)Oc4ccccc4)c(O)c3)nc(N3C[C@H](N)C[C@H](N)C3)n2)C1` [4-[4-((3R,5S)-3,5-Bis-(aminomethyl)-piperidin-1-yl)-6-((3R,5S)-3,5-diamino-piperidin-1-yl)-[1,3,5]triazin-2-ylamino]-2-hydroxy-benzoic acid phenyl ester], for which the MIC is < 64 µg/mL.

For `NC[C@@H]1C[C@H](CN)CN(c2nc(Nc3ccc(S(=O)(=O)Nc4ccc5cn[nH]c5c4)cc3)nc(N3C[C@H](N)C[C@H](N)C3)n2)C1` [4-[4-((3R,5S)-3,5-Bis-(aminomethyl)-piperidin-1-yl)-6-((3R,5S)-3,5-diamino-piperidin-1-yl)-[1,3,5]triazin-2-ylamino]-N-(1H-indazol-6-yl)-benzenesulfonamide], the minimal inhibitory concentration (MIC) was > 64 µg/mL.

As for `N[C@@H]1C[C@H](N)CN(c2nc(Nc3ccc(S(=O)(=O)Nc4ccc5cn[nH]c5c4)cc3)nc(N3C[C@@H](N)[C@@H](N)C3)n2)C1` [4-[4-((3R,5S)-3,5-Diamino-piperidin-1-yl)-6-((3R,4S)-3,4-diamino-pyrrolidin-1-yl)-[1,3,5]triazin-2-ylamino]-N-(1H-indazol-6-yl)-benzenesulfonamide], the MIC is > 64 µg/mL.

With `COc1nc(Nc2ccc(S(=O)(=O)Nc3ccc4cn[nH]c4c3)cc2)nc(N2C[C@H](N)C[C@H](N)C2)n1` [4-[4-((3R,5S)-3,5-Diamino-piperidin-1-yl)-6-methoxy-[1,3,5]triazin-2-ylamino]-N-(1H-indazol-6-yl)-benzenesulfonamide], the MIC was > 64 µg/mL.

On to `N[C@@H]1C[C@H](N)CN(c2nc(NCCCn3ccnc3)nc(Nc3ccc(S(=O)(=O)Nc4ccc5cn[nH]c5c4)cc3)n2)C1` [4-[4-((3S,5R)-3,5-Diamino-piperidin-1-yl)-6-(3-imidazol-1-yl-propylamino)-[1,3,5]triazin-2-ylamino]-N-(1H-indazol-6-yl)-benzenesulfonamide], for which the minimal inhibitory concentration (MIC) was > 64 µg/mL.

Turning to `N[C@@H]1C[C@H](N)CN(c2nc(Nc3ccc(S(=O)(=O)Nc4ccc5cn[nH]c5c4)cc3)nc(N3C[C@@H](O)[C@@H](O)C3)n2)C1` [4-[4-((3S,5R)-3,5-Diamino-piperidin-1-yl)-6-((3R,4S)-3,4-dihydroxy-pyrrolidin-1-yl)-[1,3,5]triazin-2-ylamino]-N-(1H-indazol-6-yl)-benzenesulfonamide], the minimum inhibitory concentration (MIC) was > 64 µg/mL.

Consider `N[C@@H]1C[C@H](N)CN(c2nc(Nc3ccc(S(=O)(=O)Nc4ccc5cn[nH]c5c4)cc3)nc(N3C[C@H](O)C[C@@H](O)C3)n2)C1` [4-[4-((3S,5R)-3,5-Diamino-piperidin-1-yl)-6-((3R,5R)-3,5-dihydroxy-piperidin-1-yl)-[1,3,5]triazin-2-ylamino]-N-(1H-indazol-6-yl)-benzenesulfonamide], for which the MIC was > 64 µg/mL.

Consider `N[C@@H]1C[C@H](N)CN(c2nc(Nc3ccc(S(=O)(=O)Nc4ccc5cn[nH]c5c4)cc3)nc(N3CCC[C@@H](O)C3)n2)C1` [4-[4-((3S,5R)-3,5-Diamino-piperidin-1-yl)-6-((R)-3-hydroxy-piperidin-1-yl)-[1,3,5]triazin-2-ylamino]-N-(1H-indazol-6-yl)-benzenesulfonamide], for which the MIC was > 64 µg/mL.

Consider `N[C@@H]1C[C@H](N)CN(c2nc(Nc3ccc(NC(=O)CCCC[C@@H]4SC[C@H]5NC(=O)N[C@@H]45)c(O)c3)nc(N3C[C@H](N)C[C@H](N)C3)n2)C1` [5-((3aR,4S,6aS)-2-Oxo-hexahydro-thieno[3,4-d]imidazol-4-yl)-pentanoicacid {4-[4-((3R,5S)-3,5-diamino-piperidin-1-yl)-6-((3S,5R)-3,5-diamino-piperidin-1-yl)-[1,3,5]triazin-2-ylamino]-2-hydroxy-phenyl}-amide], for which the MIC is > 64 µg/mL.

For `N[C@@H]1C[C@H](N)CN(c2nc(N3C[C@H](N)C[C@H](N)C3)nc(-n3ccc4cc(Br)ccc43)n2)C1` [5-Bromo-1-(4,6-Bis-((3R,5S)-3,5-diamino-piperidin-1-yl)-[1,3,5]triazain-2-yl)-1H-indole], the MIC is < 64 µg/mL.

Turning to `Cc1cc(=O)oc2cc(Nc3nc(NCCN)nc(N4C[C@H](N)C[C@H](N)C4)n3)ccc12` [7-[4-(2-Amino-ethylamino)-6-((3R,5S)-3,5-diamino-piperidin-1-yl)-[1,3,5]triazin-2-ylamino]-4-methyl-chromen-2-one], the MIC is > 64 µg/mL.

As for `Cc1cc(=O)oc2cc(Nc3nc(N4C[C@H](N)C[C@H](N)C4)nc(N4C[C@H](O)C[C@H]4CN)n3)ccc12` [7-[4-((2S,4R)-2-Aminomethyl-4-hydroxy-pyrrolidin-1-yl)-6-((3R,5S)-3,5-diamino-piperidin-1-yl)-[1,3,5]triazin-2-ylamino]-4-methyl-chromen-2-one], the minimal inhibitory concentration (MIC) was > 64 µg/mL.

For `Cc1cc(=O)oc2cc(Nc3nc(N4C[C@H](N)C[C@H](N)C4)nc(N4CC[C@H](O)[C@H](CN)C4)n3)ccc12` [7-[4-((3R,4S)-3-Aminomethyl-4-hydroxy-piperidin-1-yl)-6-((3R,5S)-3,5-diamino-piperidin-1-yl)-[1,3,5]triazin-2-ylamino]-4-methyl-chromen-2-one], the MIC was > 64 µg/mL.

Staying with this assay, now noted: MIC in E. coli or S. aureus; two-fold serial dilutions 64 to 0.5 μg/ml in duplicate; 18 hours of incubation at 35° C.
On to `NC[C@@H]1CN(c2nc(Nc3ccc(S(=O)(=O)Nc4ccc5cn[nH]c5c4)cc3)nc(N3C[C@H](N)C[C@H](N)C3)n2)CC[C@@H]1O` [4-[4-((3R,4S)-3-Aminomethyl-4-hydroxy-piperidin-1-yl)-6-((3RE,5S)-3,5-diamino-piperidin-1-yl)-[1,3,5]triazin-2-ylamino]-N-(1H-indazol-6-yl)-benzenesulfonamide], for which the “Potency (MIC)” value is “− (− means MIC>64 μg/ml in E. coli or S. aureus)”.

For the origin of these results see US7223759B2, “Antibacterial 3,5-diaminopiperidine-substituted aromatic and heteroaromatic compounds” (Anadys Pharmaceuticals, Inc., priority 2003, dated 2007).
